Measurements reported in patent US12497515B2, “Fluorogenic pH-sensitive compounds and their methods of use” (LIFE TECHNOLOGIES CORPORATION, priority 2020, dated 2025).
Values belong to the compound of their own block, whether it stands above or below them.

Assays:
[1] = system: Jurkat cells; assay: Apoptosis control experiments (CYQUANT Direct, PRESTOBLUE HS, CELLEVENT Caspase green); type: cell-based; conditions: 2 uM overnight
Protocol: In this study, Jurkat cells were grown in 0.1% DMSO vehicle control or 2 uM camptothecin overnight in normal cell culture conditions then harvested, counted, washed, labeled, and resuspended at matched total cell number at 2×10^6 cells per mL in complete culture medium and dispensed 100 uL (200,000 cells) per well (n=8 per measurement) before adding the indicated reagents for 1 hour. […] The apoptosis indicator CELLEVENT Caspase green (Thermo Fisher Scientific, Waltham, MA) was also added to the two samples matched in total cells per mL along with NUCBLUE Live (Thermo Fisher Scientific, Waltham, MA), and cells plated at 100,000 cells per well for HCA quantification on the […] CX5.

[2] = pH response kinetics (ring opening, absorbance at 637 nm); type: physicochemical; conditions: for pH response kinetics: stock in phosphate buffer pH 7.4 mixed with phosphate buffer pH 3.13, room temperature
Protocol: The kinetics of the ring opening of Compound A, Compound C, and Compound H were studied by measuring absorbance changes at 637 nm (absorption maxima of the ring-opening states) with UV-Vis spectroscopy. Stock solutions of the three dyes were prepared in pH 7.4 phosphate buffer with concentration of 1.8 mM. […] Stock solutions (10 μL) containing the dyes (1.8 mM) in phosphate buffer (pH 7.4) were diluted 300 times with phosphate buffer (pH 3.13) to a final concentration of […] at pH 3.13. The absorption changes were recorded at room temperature at 637 nm.

[3] = pKa of the free compound (pH profile of fluorescence intensity); type: physicochemical; conditions: series of pH buffers
Protocol: (§1) FIG. 6 provides the pH profile of fluorescence intensity of Compound C at room temperature. Fluorescence was measured using 636 nm ex, 654 nm em, with 5 nm bandpass. Solutions were diluted to 5 uM with a series of pH buffers in triplicate in a 96-well clear-bottom black walled plate. Samples were measured on a Tecan Infinite M100 plate reader via top-read. RFU=relative fluorescence units.
as §1, with “FIG. 7” for “FIG. 6”, “Compound E” for “Compound C”, “with” for “with a series of”
Fluorescence was measured using 636 nm excitation wavelength (ex), 654 nm emission wavelength (em), with 5 nm bandpass filter. Solutions were diluted to 5 uM with a series of pH buffers (see Table 3) in triplicate in a 96-well clear-bottom black walled plate. Samples were measured on a Tecan Infinite M100 plate reader via top-read.
Fluorescence was measured using 636 nm ex, 654 nm em, with 5 nm bandpass. Solutions were diluted to 5 uM with pH buffers in triplicate in a 96-well clear-bottom black walled plate. Samples were measured on a Tecan Infinite M100 plate reader via top-read.

[4] = system: RAW macrophages; assay: Efferocytosis of labeled apoptotic Jurkat cells; type: cell-based; conditions: incubated with RAW macrophages 1-3 hours, 4× and 10×
Protocol: FIGS. 43-44 show the efferocytosis from apoptotic cells with Compound C. In this study, Jurkat cells were grown in 0.1% DMSO control or 2 uM camptothecin overnight in normal cell culture conditions then harvested, counted, washed, labeled and resuspended per product description in complete culture medium at matched density before adding to RAW macrophages for assays of efferocytosis, or the phagocytosis of apoptotic cells.

[5] = system: Jurkat cells; assay: Toxicity and turn-on response of labeled cells (PRESTOBLUE Cell Health Assay, Cy5 imaging); type: cell-based
Protocol: In this study, healthy Jurkat cells were grown and harvested in normal cell culture conditions, washed, counted, labeled and resuspended per product description in complete culture medium, and incubated overnight before testing for cell health and number with the PRESTOBLUE Cell Health Assay (Thermo Fisher Scientific, Waltham, MA). Cells with Compound C were, in parallel determinations, resuspended in the external reference pH buffer indicated and imaged on an EVOS M7000 for signal in the Cy5 channel from labeled cells at extracellular pH 4.5 (FIG. 42A, in red) and 7.5 (FIG. 42A, Inset). FIG. 42B is a graph showing control (left side) and compound C (right side).

[6] = system: RAW macrophages; assay: Phagocytosis of CD4 opsonized Jurkat cells labeled with compound; type: cell-based; conditions: incubated with RAW macrophages 1-3 hours, 10×
Protocol: In this study, Jurkat cells were grown as normal in complete medium then harvested, counted, washed, labeled, and resuspended per product description in complete culture medium before splitting into control and CD4 antibody treated samples. In brief, the cells were resuspended in PBS and labeled with either BSA control or CD4 antibody at 2 ug/mL for one hour at room temperature before washing 2× in PBS and adding to RAW macrophages.

SMILES: CC[C@@]1(O)C(=O)OCc2c1cc1n(c2=O)Cc2cc3ccccc3nc2-1 [Camptothecin, camptothecin]
- apoptosis, intracellular caspase activity (CELLEVENT Caspase green) [1]: substantial induction of apoptosis
- live cell number (CYQUANT Direct) [1]: fewer live cells
- overall vitality (PRESTOBLUE HS) [1]: decrease in overall vitality

SMILES: CC1(C)C=C(CS(=O)(=O)O)c2cc3c(c4c2N1CCC4)Oc1c(cc2c4c1CCCN4C(C)(C)C=C2CS(=O)(=O)O)C31c2c(Cl)ccc(Cl)c2C(=O)N1CCN1CCN(C(=O)CCOCCOCCOCCOCCC(=O)ON2C(=O)CCC2=O)CC1 [Compound A]
- absorbance as share of the expected maximum value (A=0.93) ([2]; after 3600 seconds (60 minutes) at pH 3.13): 5%
- absorbance at 637 nm ([2]; after 3600 seconds (60 minutes) at pH 3.13, 6.6 μM): 0.05
- pH response kinetics [2]: slow
- pKa [3]: 5.2

SMILES: CC1(C)C=C(CS(=O)(=O)O)c2cc3c(c4c2N1CCC4)Oc1c(cc2c4c1CCCN4C(C)(C)C=C2CS(=O)(=O)O)C31c2c(Cl)ccc(Cl)c2C(=O)N1OCCOCCOCCOCCC(=O)Oc1c(F)c(F)cc(F)c1F [Compound C]
- absorption at 637 nm (A) ([2]; immediately after mixing pH 7.4 stock into pH 3.13 buffer, 6.6 μM, maximum, kept constant): 0.93
- pH response kinetics [2]: fast
- pKa [3]: 4.87
- efferocytosis signal, camptothecin treated vs control labeled Jurkat cells [4]: signal preferentially appearing from the camptothecin treated samples
- toxicity to labeled cells vs sham labeled control ([5]; Jurkat cells, overnight, PRESTOBLUE): little toxicity
- turn-on response of labeled cells ([5]; extracellular pH 4.5 vs 7.5, Cy5 channel): large fold turn-on response
- phagocytosis signal, CD4 antibody treated vs control labeled Jurkat cells [6]: signal preferentially appearing from the CD4 treated samples

SMILES: CC1(C)C=C(CS(=O)(=O)O)c2cc3c(c4c2N1CCC4)Oc1c(cc2c4c1CCCN4C(C)(C)C=C2CS(=O)(=O)O)C31c2c(Cl)ccc(Cl)c2C(=O)N1OCC(=O)Oc1c(F)c(F)cc(F)c1F [Compound F]
- pKa [3]: 5.5

SMILES: CC1(C)C=C(CS(=O)(=O)O)c2cc3c(c4c2N1CCC4)Oc1c(cc2c4c1CCCN4C(C)(C)C=C2CS(=O)(=O)O)C31c2c(Cl)ccc(Cl)c2C(=O)N1CCOCCOCCOCCOCCC(=O)Oc1c(F)c(F)cc(F)c1F [Compound H]
- absorbance as share of the expected maximum value (A=0.93) ([2]; after 6000 seconds (100 minutes) at pH 3.13): 5%
- absorbance at 637 nm ([2]; after 6000 seconds (100 minutes) at pH 3.13, 6.6 μM): 0.05
- pH response kinetics [2]: slow
- pKa [3]: 5.2

Results, then the compound that gave them:

- pKa [3]: 3.7
SMILES: CC1(C)C=C(CS(=O)(=O)O)c2cc3c(c4c2N1CCC4)Oc1c(cc2c4c1CCCN4C(C)(C)CC2CS(=O)(=O)O)C31c2c(Cl)ccc(Cl)c2C(=O)N1NC(=O)CCOCCOCCOCCOCCC(=O)Oc1c(F)c(F)cc(F)c1F (centres unmarked) [Compound B]

- pKa [3]: 4.3
SMILES: CC1(C)C=C(CS(=O)(=O)O)c2cc3c(c4c2N1CCC4)Oc1c(cc2c4c1CCCN4C(C)(C)CC2CS(=O)(=O)O)C31c2c(Cl)c(Cl)c(Cl)c(Cl)c2C(=O)N1NC(=O)CCOCCOCCOCCOCCC(=O)Oc1c(F)c(F)cc(F)c1F (centres unmarked) [Compound D]

- pKa [3]: 4.67
SMILES: CC1(C)C=C(CS(=O)(=O)O)c2cc3c(c4c2N1CCC4)Oc1c(cc2c4c1CCCN4C(C)(C)C=C2CS(=O)(=O)O)C31c2c(Cl)c(Cl)c(Cl)c(Cl)c2C(=O)N1OCCOCCOCCOCCC(=O)Oc1c(F)c(F)cc(F)c1F [Compound E]

- pKa [3]: 6.5
SMILES: CC(C)(ON1C(=O)c2c(Cl)ccc(Cl)c2C12c1cc3c4c(c1Oc1c2cc2c5c1CCCN5C(C)(C)C=C2CS(=O)(=O)O)CCCN4C(C)(C)C=C3CS(=O)(=O)O)C(=O)Oc1c(F)c(F)cc(F)c1F [Compound G]
